# Results taken from US5795899A, “Soluble salts of 4-amino-2-(4,4-dimethylimidazolidin-2-on-1-yl) pyrimidine-5-carboxylic acid N-methyl-N-(3-trifluoromethylphenyl)-amide, a process for the preparation thereof, the use thereof as pharmaceuticals and starting materials” (Hoechst Aktiengesellschaft, priority 1992, dated 1998).
# Experiments:
# serum lipoproteins = experiment: Effect on serum lipoproteins of normolipemic male rats in a subchronic test; type: in vivo, male Wistar rats, HOE: WISKf (SPF 71) strain; conditions: for % change compared with control, protein LDL / % change compared with control, total cholesterol LDL / % change compared with control, total cholesterol VLDL / % change compared with control, triglycerides VLDL: oral, 7 days
# Experimental: 4.1 Effect on serum lipoproteins of normolipemic male rats in a subchronic test
# Groups of in each case 10 male rats of the HOE: WISKf (SPF 71) strain with an initial weight above 180 g received once a day (in the morning) the test product or the comparison product in 1% aqueous ®Tylose MH 300 solution by stomach tube (0.5 ml/100 g of body weight); the control group in each case received only the vehicle. The last (7th) administration took place 24 hours before removal of blood and sacrifice. There was free access to food and water during the test. The food was withdrawn 24 hours before the removal of blood.
# The serum from all 10 rats in a group was pooled for the analysis of the serum lipoproteins. The serum lipoproteins were separated with a preparative ultracentrifuge (KONTRON TGA 65, Rotor BECKMAN 50.4 Ti).
# The following conditions specified by Koga, S., Horwitz, D. L., and Scanu, A. M., Journal of Lipid Research 10, 577 (1969) and Havel, R. J., Eder, H. A., and Bragdon, H. H., J. Clin. Invest. 34, 1345 (1955) were used to separate VLDL, LDL and HDL:
# Test kits from BOEHRINGER/Mannheim were used for the enzymatic determination of cholesterol and triglycerides in the separated lipoprotein fractions (compare Siedel, J., Schlumberger, H., Klose, S., Ziegenhorn, J. and Wahlefeld, A. W., J. Clin. Chem. Clin. Biochem. 19, 838 (1981) and Wahlefeld, A. W., in: H. O. Bergmeier: Methoden der enzymatischen Analyse (Methods of Enzymatic Analysis), 2nd edition, Volume II, Verlag Chemie 1974, page 1878). The proteins were determined by the method of Lowry (Lowry, O. H., Roseborough, N. J., Farr, A. L. and R. J. Randell, J. Biol. Chem. 193, 265 (1951)).
# Clofibrate was used as comparison product.
# hypercholesterolemia = experiment: Effect on experimental hypercholesterolemia in male rats; type: in vivo, male Wistar rats, HOE: WISKf (SPF 71) strain; conditions: oral, 7 days; for Total cholesterol (x): mean x
# Experimental: Groups of in each case 10 male rats of the HOE: WISKf (SPF 71) strain with a weight of about 200 g received each day in the morning a cocktail which contained the substances required to generate a combined dietetic/hormonal hypercholesterolemia, and in each case the product to be tested for the inhibition of hypercholesterolemia, in appropriate dosage. The cocktail was composed of a mixture of 100 g of cholesterol, 30 g of propylthiouracil and 100 g of cholic acid in 1 l of peanut oil. 1 ml of this/100 g of body weight was administered by gavage. The products to be tested were suspended in this cocktail in a concentration such that it contained the daily dose indicated in Table 4 on administration of the amount mentioned above. The other procedure for the treatment and the analysis of the individual parameters were carried out as indicated under 4.1.
# Clofibrate was used as comparison product. The results are compiled in Table 4, wherein a) indicates the absolute values and b) indicates the percentage changes.
# [1] = tested on: carbohydrate-induced hypertriglyceridemia; experiment: Inhibition of carbohydrate-induced hypertriglyceridemia; type: in vivo, male Sprague-Dawley rats; conditions: oral, 4 days; for Triglycerides in serum (x): mean x
# Experimental: Groups of in each case 10 male Sprague-Dawley rats (supplied by the breeder Mollegard with a weight of 250-280 g) received on each of 4 consecutive days one administration of the compound dissolved in PEG 400 by gavage. In addition, after the 3rd administration and 8 and 24 hours later they received 2.5 g of fructose/kg, likewise by gavage. Moreover, after the 3rd administration of product, 50% strength fructose solution was offered to them as drinking water ad libitum, and the food was withdrawn. Retroorbital removal of blood, from which the serum was obtained for the triglyceride determination and VLDL preparation in the ultracentrifuge (flotation at d=1.006), took place 3 hours after the last product/fructose administration. The food received by the animals from 1 week before the 1st administration and up to the 3rd administration was a diet with 40% casein in the feed meal.
# The animals develop, as a result of this treatment, a hypertriglyceridemia which approximately corresponds to Fredrickson phenotype IV in humans. The serum triglycerides of the normal animals increased from 0.54 to 1.1 mmol/l, and the VLDL triglycerides from 0.67 to 1.81.
# [2] = Side effects like those observed with the statins; conditions: general statement
# [3] = tested on: tumor cells (L 1210, A 549, HT 29); experiment: Cell proliferation inhibition (MTT assay), overall statement; type: cell-based, mouse and human
# Experimental: The reduced inhibitory effect on cell proliferation was tested on exponentially growing animal (mouse leukemia cells, L 1210) and human (bronchial carcinoma cells, A 549; colon carcinoma cells, HT 29) tumor cells. This entailed the tumor cells being incubated in RPMI standard medium with various concentrations of the test substances for 72 hours. Cell incubations only in fresh medium served as control. Incubations were set up in quadruplet. […] After incubation for a further 7 to 24 hours, the cell supernatant was carefully removed and the formazan dye in the cells was solubilized by adding DMSO and measured quantitatively by photometry at 492 nm. The ratio of the extinction of the substance incubations to the control incubation was quantified. The coefficient of variation in each incubation series was less than 15%. The following Table 6 indicates the IC50 values (IC50 [μg/ml] is the concentration of the test substance per ml which is necessary for 50% inhibition) from these investigations.
# physchem = conditions: water
smiles,measurement,setting,value
"CN(C(=O)c1cnc(N2CC(C)(C)NC2=O)nc1N)c1cccc(C(F)(F)F)c1 [Compound I, 4-amino-2-(4,4-dimethylimidazolidin-2-on-1-yl)pyrimidine-5-carboxylic acid N-methyl-N-(3-trifluoromethylphenyl)amide]","% change compared with control, protein LDL",serum lipoproteins; 1 mg/kg/day,-15%
same,"% change compared with control, total cholesterol LDL",serum lipoproteins; 1 mg/kg/day,-17%
same,"% change compared with control, total cholesterol VLDL",serum lipoproteins; 1 mg/kg/day,+4%
same,"% change compared with control, triglycerides VLDL",serum lipoproteins; 1 mg/kg/day,+8%
same,"% change compared with control, protein LDL",serum lipoproteins; 3 mg/kg/day,-25%
same,"% change compared with control, total cholesterol LDL",serum lipoproteins; 3 mg/kg/day,-32%
same,"% change compared with control, total cholesterol VLDL",serum lipoproteins; 3 mg/kg/day,-24%
same,"% change compared with control, triglycerides VLDL",serum lipoproteins; 3 mg/kg/day,-25%
same,"% change compared with control, protein LDL",serum lipoproteins; 10 mg/kg/day,-41%
same,"% change compared with control, total cholesterol LDL",serum lipoproteins; 10 mg/kg/day,-49%
same,"% change compared with control, total cholesterol VLDL",serum lipoproteins; 10 mg/kg/day,-52%
same,"% change compared with control, triglycerides VLDL",serum lipoproteins; 10 mg/kg/day,-62%
same,"% change compared with control, protein LDL",serum lipoproteins; 30 mg/kg/day,-52%
same,"% change compared with control, total cholesterol LDL",serum lipoproteins; 30 mg/kg/day,-64%
same,"% change compared with control, total cholesterol VLDL",serum lipoproteins; 30 mg/kg/day,-59%
same,"% change compared with control, triglycerides VLDL",serum lipoproteins; 30 mg/kg/day,-79%
same,HDL levels (in words),serum lipoproteins; general statement,unaffected
same,"% change compared with control, protein ""HDL"" d > 1.04",hypercholesterolemia; 10 mg/kg/day,-7%
same,"% change compared with control, protein LDL",hypercholesterolemia; 10 mg/kg/day,-16%
same,"% change compared with control, protein VLDL",hypercholesterolemia; 10 mg/kg/day,-8%
same,"% change compared with control, total cholesterol ""HDL"" d > 1.04",hypercholesterolemia; 10 mg/kg/day,-14%
same,"% change compared with control, total cholesterol LDL",hypercholesterolemia; 10 mg/kg/day,-13%
same,"% change compared with control, total cholesterol VLDL",hypercholesterolemia; 10 mg/kg/day,-34%
same,"% change compared with control, triglycerides VLDL",hypercholesterolemia; 10 mg/kg/day,-54%
same,"Lipoprotein fraction protein ""HDL""",hypercholesterolemia; 10 mg/kg/day,5004
same,Lipoprotein fraction protein LDL,hypercholesterolemia; 10 mg/kg/day,1040
same,Lipoprotein fraction protein VLDL,hypercholesterolemia; 10 mg/kg/day,1981
same,"Lipoprotein fraction total cholesterol ""HDL""",hypercholesterolemia; 10 mg/kg/day,508
same,Lipoprotein fraction total cholesterol LDL,hypercholesterolemia; 10 mg/kg/day,4099
same,Lipoprotein fraction total cholesterol VLDL,hypercholesterolemia; 10 mg/kg/day,3088
same,Lipoprotein fraction triglycerides VLDL,hypercholesterolemia; 10 mg/kg/day,677
same,"Serum % change compared with control at the end of treatment, total cholesterol",hypercholesterolemia; 10 mg/kg/day,-24%
same,"Serum % change compared with control at the end of treatment, triglycerides",hypercholesterolemia; 10 mg/kg/day,-16%
same,"Triglycerides, pool",hypercholesterolemia; 10 mg/kg/day,2.45 mmol/L
same,Total cholesterol (x),hypercholesterolemia; 10 mg/kg/day,556 mg/dL
same,"% change compared with control, protein ""HDL"" d > 1.04",hypercholesterolemia; 30 mg/kg/day,-24%
same,"% change compared with control, protein LDL",hypercholesterolemia; 30 mg/kg/day,-68%
same,"% change compared with control, protein VLDL",hypercholesterolemia; 30 mg/kg/day,-49%
same,"% change compared with control, total cholesterol ""HDL"" d > 1.04",hypercholesterolemia; 30 mg/kg/day,+79%
same,"% change compared with control, total cholesterol LDL",hypercholesterolemia; 30 mg/kg/day,-92%
same,"% change compared with control, total cholesterol VLDL",hypercholesterolemia; 30 mg/kg/day,-97%
same,"% change compared with control, triglycerides VLDL",hypercholesterolemia; 30 mg/kg/day,-71%
same,"Lipoprotein fraction protein ""HDL""",hypercholesterolemia; 30 mg/kg/day,4090
same,Lipoprotein fraction protein LDL,hypercholesterolemia; 30 mg/kg/day,391
same,Lipoprotein fraction protein VLDL,hypercholesterolemia; 30 mg/kg/day,1105
same,"Lipoprotein fraction total cholesterol ""HDL""",hypercholesterolemia; 30 mg/kg/day,1056
same,Lipoprotein fraction total cholesterol LDL,hypercholesterolemia; 30 mg/kg/day,369
same,Lipoprotein fraction total cholesterol VLDL,hypercholesterolemia; 30 mg/kg/day,126
same,Lipoprotein fraction triglycerides VLDL,hypercholesterolemia; 30 mg/kg/day,425
same,"Serum % change compared with control at the end of treatment, total cholesterol",hypercholesterolemia; 30 mg/kg/day,-81%
same,"Serum % change compared with control at the end of treatment, triglycerides",hypercholesterolemia; 30 mg/kg/day,-62%
same,"Triglycerides, pool",hypercholesterolemia; 30 mg/kg/day,1.10 mmol/L
same,Total cholesterol (x),hypercholesterolemia; 30 mg/kg/day,137 mg/dL
same,"Triglycerides in serum, % change from fructose control",[1]; 1 mg/kg/day,-36%
same,"Triglycerides in the VDVL fraction, % change from fructose control",[1]; 1 mg/kg/day,-45%
same,"Triglycerides in the VDVL fraction, pool n = 10",[1]; 1 mg/kg/day,1.00 mmol/L
same,Triglycerides in serum (x),[1]; 1 mg/kg/day,0.71 mmol/L
same,"Triglycerides in serum, % change from fructose control",[1]; 3 mg/kg/day,-51%
same,"Triglycerides in the VDVL fraction, % change from fructose control",[1]; 3 mg/kg/day,-62%
same,"Triglycerides in the VDVL fraction, pool n = 10",[1]; 3 mg/kg/day,0.69 mmol/L
same,Triglycerides in serum (x),[1]; 3 mg/kg/day,0.54 mmol/L
same,"Triglycerides in serum, % change from fructose control",[1]; 10 mg/kg/day,-68%
same,"Triglycerides in the VDVL fraction, % change from fructose control",[1]; 10 mg/kg/day,-80%
same,"Triglycerides in the VDVL fraction, pool n = 10",[1]; 10 mg/kg/day,0.37 mmol/L
same,Triglycerides in serum (x),[1]; 10 mg/kg/day,0.35 mmol/L
same,"Triglycerides in serum, % change from fructose control",[1]; 30 mg/kg/day,-74%
same,"Triglycerides in the VDVL fraction, % change from fructose control",[1]; 30 mg/kg/day,-90%
same,"Triglycerides in the VDVL fraction, pool n = 10",[1]; 30 mg/kg/day,0.19 mmol/L
same,Triglycerides in serum (x),[1]; 30 mg/kg/day,0.29 mmol/L
same,Side effects of the statin type observed to date,[2],Nor have side effects of this type been observed to date
same,Proliferation inhibition compared with imanixil (HOE 402) / its hydrochloride (in words),[3],distinctly reduced proliferation inhibition
same,Solubility in water (in words),,exceptionally slightly soluble in water
same,1 part by mass dissolves in . . . parts of H2 O,"Table 2, Temp. [°C]: hydrochloride 25.0, nitrate 23.5, p-toluenesulfonate 23.2, hydrogen (R,R)-tartrate 24.6, free base 24.8",1220 parts of H2 O
same,solubility,physchem,800 µg/mL
same,solubility,"physchem; Solubility in water: molarity, Table 2, free base, 24.8 °C",2000 µM
